# ChEMBL document CHEMBL3638657, “Substituted phenylureas and phenylamides as vanilloid receptor ligands” (2015)
# Experiments:
# [1] = molecular target: Transient receptor potential cation channel subfamily V member 1 (Rattus norvegicus, UniProt O35433); experiment: FLIPR Assay: The agonistic or antagonistic effect of the substances to be tested on the rat-species vanilloid receptor 1 (VR1/TRPV1) can be determined using the following assay. In this assay, the influx of Ca2+ through the receptor channel is quantified with the aid of a Ca2+-sensitive dye (type Fluo-4, Molecular Probes Europe BV, Leiden, the Netherlands) in a fluorescent imaging plate reader (FLIPR, Molecular Devices, Sunnyvale, USA).Method:Complete medium: 50 ml HAMS F12 nutrient mixture (Gibco Invitrogen GmbH, Karlsruhe, Germany) with10% by volume of FCS (foetal calf serum, Gibco Invitrogen GmbH, Karlsruhe, Germany, heat-inactivated);2 mM L-glutamine (Sigma, Munich, Germany);1% by weight of AA solution (antibiotic/antimyotic solution, PAA, Pasching, Austria) and 25 ng/ml NGF medium (2.5 S, Gibco Invitrogen GmbH, Karlsruhe, Germany).
# Sequence of Transient receptor potential cation channel subfamily V member 1 (Rattus norvegicus, UniProt O35433) (O35433 whole entry): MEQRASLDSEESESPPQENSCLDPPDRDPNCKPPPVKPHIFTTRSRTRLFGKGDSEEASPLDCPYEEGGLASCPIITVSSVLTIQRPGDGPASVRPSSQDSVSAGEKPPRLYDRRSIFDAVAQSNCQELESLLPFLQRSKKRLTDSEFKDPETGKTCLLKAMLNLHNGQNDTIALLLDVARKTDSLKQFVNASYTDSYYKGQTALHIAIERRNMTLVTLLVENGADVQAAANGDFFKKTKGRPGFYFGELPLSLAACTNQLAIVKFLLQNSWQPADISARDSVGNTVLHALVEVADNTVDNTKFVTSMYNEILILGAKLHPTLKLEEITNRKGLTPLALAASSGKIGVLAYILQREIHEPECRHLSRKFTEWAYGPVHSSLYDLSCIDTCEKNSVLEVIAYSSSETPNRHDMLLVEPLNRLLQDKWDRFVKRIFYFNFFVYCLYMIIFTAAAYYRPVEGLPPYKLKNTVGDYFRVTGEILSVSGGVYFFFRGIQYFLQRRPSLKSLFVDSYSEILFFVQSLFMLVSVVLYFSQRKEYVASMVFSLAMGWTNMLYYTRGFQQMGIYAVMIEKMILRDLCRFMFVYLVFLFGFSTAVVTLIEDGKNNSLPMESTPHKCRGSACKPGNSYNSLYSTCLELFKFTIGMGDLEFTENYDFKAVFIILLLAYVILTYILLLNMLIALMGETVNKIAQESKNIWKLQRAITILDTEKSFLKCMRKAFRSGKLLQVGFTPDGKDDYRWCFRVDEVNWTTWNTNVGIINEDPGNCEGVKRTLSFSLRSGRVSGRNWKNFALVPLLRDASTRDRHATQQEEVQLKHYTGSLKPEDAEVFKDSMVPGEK
# [2] = molecular target: Transient receptor potential cation channel subfamily V member 1 (Homo sapiens, UniProt Q8NER1); experiment: FLIPR Assay: The agonistic or antagonistic effect of the substances to be tested on the vanilloid receptor 1 (VR1) can also be determined using the following assay. In this assay, the influx of Ca2+ through the channel is quantified with the aid of a Ca2+-sensitive dye (type Fluo-4, Molecular Probes Europe BV, Leiden, the Netherlands) in a fluorescent imaging plate reader (FLIPR, Molecular Devices, Sunnyvale, USA).Method:Chinese hamster ovary cells (CHO K1 cells, European Collection of Cell Cultures (ECACC) United Kingdom) are stably transfected with the VR1 gene. For functional testing, these cells are plated out on poly-D-lysine-coated black 96-well plates having a clear base (BD Biosciences, Heidelberg, Germany) at a density of 25,000 cells/well. The cells are incubated overnight at 37 C. and 5% CO2 in a culture medium (Ham's F12 nutrient mixture, 10% by volume of FCS (foetal calf serum), 18 ug/ml of L-proline). The next day the cells are incubated with Fluo-4.; format: cell-based
# Sequence of Transient receptor potential cation channel subfamily V member 1 (Homo sapiens, UniProt Q8NER1) (Q8NER1 whole entry): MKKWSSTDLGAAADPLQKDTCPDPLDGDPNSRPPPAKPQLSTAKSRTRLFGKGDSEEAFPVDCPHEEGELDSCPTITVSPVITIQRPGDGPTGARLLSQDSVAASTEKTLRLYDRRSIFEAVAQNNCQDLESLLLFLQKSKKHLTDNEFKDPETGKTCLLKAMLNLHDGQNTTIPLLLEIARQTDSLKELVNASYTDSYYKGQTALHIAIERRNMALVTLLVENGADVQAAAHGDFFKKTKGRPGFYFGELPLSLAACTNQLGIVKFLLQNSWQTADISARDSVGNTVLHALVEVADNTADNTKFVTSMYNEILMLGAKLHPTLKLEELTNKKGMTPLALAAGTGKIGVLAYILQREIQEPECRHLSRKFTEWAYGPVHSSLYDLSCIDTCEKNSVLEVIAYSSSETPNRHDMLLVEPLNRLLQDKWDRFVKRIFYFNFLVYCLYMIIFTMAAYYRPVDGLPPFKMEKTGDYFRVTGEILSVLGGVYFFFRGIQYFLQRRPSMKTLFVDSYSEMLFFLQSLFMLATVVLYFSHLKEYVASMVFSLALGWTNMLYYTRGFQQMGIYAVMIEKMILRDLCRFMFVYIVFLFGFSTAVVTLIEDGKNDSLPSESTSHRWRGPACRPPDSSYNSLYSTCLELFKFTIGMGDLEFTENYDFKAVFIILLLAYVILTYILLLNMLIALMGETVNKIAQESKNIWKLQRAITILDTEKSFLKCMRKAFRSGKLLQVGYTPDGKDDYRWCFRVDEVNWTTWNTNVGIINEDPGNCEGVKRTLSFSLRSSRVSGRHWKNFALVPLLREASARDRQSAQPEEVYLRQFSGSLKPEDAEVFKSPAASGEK
smiles,measurement,setting,value
Cc1ccc(-n2nc(C(C)(C)C)cc2CNC(=O)C(C)c2ccc(NS(C)(=O)=O)c(F)c2)cc1 (configuration not stated),Ki,[1],5.9 nM
same,Ki,[2],8 nM
